According to ChEMBL document CHEMBL3430912, “GSK Tres Cantos Anti-Kinetoplastid Screening (TCAKS) Data”:

Experiments:
Leishmania donovani [1] = test: GSK_TCAKS: pIC50 Leishmania donovani Imaging: THP-1 Host Macrophages. Assay plates (384-well) were prepared by adding 250nL of compound to each well. For single shot assay, the final compound concentration was 5 uM. […] Automated image analysis was performed with a script developed on Acapella High Content Imaging and Analysis Software (PerkinElmer). Output: THP-1 cell count were reported for each well.; assay type: functional, organism-based, Homo sapiens
[2] = molecular target: Sterol 14-alpha demethylase (Trypanosoma cruzi (strain CL Brener), UniProt Q7Z1V1); test: GSK_TCAKS: pIC50 CYP51 from Trypanosoma cruzi.; assay type: functional
Trypanosoma cruzi [3] = test: (§1) GSK_TCAKS: pIC50 Trypanosoma cruzi Imaging: Infected Cells. […] Cells were then washed once with PBS before infection. T. cruzi trypomastigotes, collected at days 5 to 8 after infection from LLC-MK2 parasite infected cultures, were allowed to swim out for 4h at 37C from a centrifuged pellet (2,500 rpm/10 min/room temperature). Trypomastigotes were then collected and counted in a CASY Cell Counter. Trypomastigotes, in supplemented DMEM, were added to H9c2 cultures in a multiplicity of infection of 1 and incubated for 18 h. Cells were washed once with PBS before incubation of the infected H9c2 monolayer with trypsin (Life-Technologies) to detach cells from the flask. Cells were counted in a CASY Cell Counter using a 150 um capillary and their density set at 5 * 10^4 cells per mL in supplemented assay DMEM. Infected H9c2 were dispensed into 384-well poly-lysine coated assay plates at 50uL per well using a Multidrop Combi dispenser. After seeding them, the plates were incubated at 37C, 5% CO2 for 72h. Cultures were then fixed and stained by addition of 50 uL of a solution containing 8% formaldehyde and 4 uM DRAQ5 DNA dye (BioStatus, UK) per well. […] Five images were collected per well for reliable statistical analysis. Automated image analysis was performed with a script developed on Acapella High Content Imaging and Analysis Software (PerkinElmer). Output: percentage of infected cells per well as a second infection marker.; assay type: functional, organism-based, Rattus norvegicus; details: H9c2, 4 h
Trypanosoma cruzi [4] = test: GSK_TCAKS: pIC50 Trypanosoma cruzi Imaging: Amastigotes/Cell. […] Cells were then washed once with PBS before infection. T. cruzi trypomastigotes, collected at days 5 to 8 after infection from LLC-MK2 parasite infected cultures, were allowed to swim out for 4h at 37C from a centrifuged pellet (2,500 rpm/10 min/room temperature). Trypomastigotes were then collected and counted in a CASY Cell Counter. Trypomastigotes, in supplemented DMEM, were added to H9c2 cultures in a multiplicity of infection of 1 and incubated for 18 h. Cells were washed once with PBS before incubation of the infected H9c2 monolayer with trypsin (Life-Technologies) to detach cells from the flask. Cells were counted in a CASY Cell Counter using a 150 um capillary and their density set at 5 * 10^4 cells per mL in supplemented assay DMEM. Infected H9c2 were dispensed into 384-well poly-lysine coated assay plates at 50uL per well using a Multidrop Combi dispenser. After seeding them, the plates were incubated at 37C, 5% CO2 for 72h. Cultures were then fixed and stained by addition of 50 uL of a solution containing 8% formaldehyde and 4 uM DRAQ5 DNA dye (BioStatus, UK) per well. […] Five images were collected per well for reliable statistical analysis. Automated image analysis was performed with a script developed on Acapella High Content Imaging and Analysis Software (PerkinElmer). Output: number of amastigotes per cell as infection level measurement.; assay type: functional, organism-based, Rattus norvegicus; details: H9c2, 4 h
Leishmania donovani [5] = test: GSK_TCAKS: pIC50 Leishmania donovani Imaging: Infected Macrophages. Assay plates (384-well) were prepared by adding 250nL of compound to each well. For single shot assay, the final compound concentration was 5 uM. […] Automated image analysis was performed with a script developed on Acapella High Content Imaging and Analysis Software (PerkinElmer). Output: Percent of infected macrophage cells were reported for each well.; assay type: functional, organism-based, Homo sapiens; details: THP-1
[6] = GSK_TCAKS: pIC50 HepG2 human cell line viability assay using luminiscence. […] Seeding density was checked to ensure that new mono-layers were not more than 50% confluent at the time of harvesting. Cell suspension was added to 500 mL of the same medium at a final density of 1.2 * 10^5 cells/mL. This cell suspension was dispensed (25 uL, 3000 cells per well) into 384-well clear-bottom plates using a Multidrop Combi dispenser. Prior to addition of the cell suspension, the screening compounds (250 nL) were pre-dispensed into the plates with an Echo liquid handler. Plates were incubated for 48 h at 37C, 5% CO2. After incubation, plates equilibrated at room temperature for 30 min before proceeding to develop the luminescent signal. The signal developer, CellTiter-Glo Reagent, was allowed to equilibrate at room temperature for 30 min and added to the plates (25uL per well) using a Multidrop Combi dispenser. Plates were left for 10 min at room temperature for stabilization and then read using a ViewLux.; assay type: toxicity, cell-based
Leishmania donovani [7] = test: GSK_TCAKS: pIC50 Leishmania donovani viability assay using fluorescence intensity. Assay plates (1536-well) were prepared by adding 30nL per well of compound. For single shot assay, the final compound concentration was 5uM. […] Briefly, eGFP LdBOB axenic amastigotes were harvested, fixed and counted in a CASY cell counter (Roche-Applied Science). A final concentration of 1.5 * 10^5 cells per well were prepared in amastigote media containing 500 U/mL penicillin/streptomycin (Invitrogen) and 6uL was dispensed to each experimental well using a Multidrop Combi dispenser (Thermo Scientific). 6uL of assay media was dispensed to control columns used as reference for 100% compound response. Following incubation for 72 h at 37C, 5% CO2, 2 uL of resazurin was added to each well at a final concentration of 0.5 mM in phosphate buffered saline (PBS) with IGEPAL (Sigma-Aldrich), 0.05% (v/v).; assay type: functional, organism-based
[8] = tested on: Trypanosoma brucei brucei; test: GSK_TCAKS: pIC50 Trypanosoma brucei viability assay using fluorescence intensity. Assay plates (1536-well) were prepared by dispensing 25nL of compound solution per well using an Echo acoustic dispenser (Labcyte).; assay type: functional, organism-based; details: Lister 427, 2 h
Leishmania donovani [9] = test: GSK_TCAKS: pIC50 Leishmania donovani Imaging: Amastigotes/Macrophages. Assay plates (384-well) were prepared by adding 250nL of compound to each well. For single shot assay, the final compound concentration was 5 uM. […] Automated image analysis was performed with a script developed on Acapella High Content Imaging and Analysis Software (PerkinElmer). Output: Average number of amastigotes per macrophage cell were reported for each well.; assay type: functional, organism-based, Homo sapiens; details: THP-1
[10] = tested on: Trypanosoma brucei brucei; test: GSK_TCAKS: pIC50 Trypanosoma brucei viability assay using luminiscence. Assay plates (1536-well) were prepared. T. brucei cultures were harvested and counted in a CASY cell counter. A parasite suspension was prepared at a final concentration of 5 * 10^4 cells/mL in complete HMI9 medium and 6uL was dispensed to all wells containing compounds using a Multidrop Combi dispenser. 6uL of HMI9 media with 0.4% DMSO were dispensed to control columns. Plates were incubated for 24 h at 37C, 5% CO2 then tempered for 10 min at room temperature. ATP content was quantified by adding 4 uL of CellTiter-Glo Reagent (Promega) according to the manufacturer's instructions. Luminescence was measured using a ViewLux.; assay type: functional, organism-based; details: Lister 427, CASY
Trypanosoma cruzi [11] = test: as §1, with “H2C9” for “Trypanosoma cruzi”, “H9c2 Host Cardiomyocytes.” for “Infected Cells.”, “Number” for “percentage”, “H9c2 Host Cardiomyocytes nuclei to determine drug-related cytotoxicity.” for “infected cells per well as a second infection marker.”; assay type: functional, organism-based, Rattus norvegicus; details: H9c2, 4 h
Trypanosoma cruzi [12] = test: GSK_TCAKS: pIC50 Trypanosoma cruzi viability assay using beta-GAL activity. This assay was run at single shot at 5uM compound concentration per well. The biological reagents consisted of NIH-3T3 host cells and trypomastigotes parasitic cells; both cell types were set to a 3.3 * 10^5 cells/mL dilution in assay DMEM by means of a CASY cell counter device using a 60um capillary. 6 uL of the mixture were dispensed per well (about 1 * 10^3 host-cells and 1 * 10^3 parasites) with a Multidrop Combi dispenser. […] In all wells, the percentage of DMSO never exceeded 0.5%. Plates incubated for four days at 37C, 5% CO2. The substrate used for the assay fluorescence intensity (FLINT) readout was resorufin-beta-D-galactopiranoside (Sigma-Aldrich) at 5uM per well. It was diluted in PBS supplemented with the soft detergent Igepal (Fluka).; assay type: functional, organism-based, Mus musculus; details: Tulahuen, NIH3T3

Sequence of Sterol 14-alpha demethylase (Q7Z1V1 whole entry): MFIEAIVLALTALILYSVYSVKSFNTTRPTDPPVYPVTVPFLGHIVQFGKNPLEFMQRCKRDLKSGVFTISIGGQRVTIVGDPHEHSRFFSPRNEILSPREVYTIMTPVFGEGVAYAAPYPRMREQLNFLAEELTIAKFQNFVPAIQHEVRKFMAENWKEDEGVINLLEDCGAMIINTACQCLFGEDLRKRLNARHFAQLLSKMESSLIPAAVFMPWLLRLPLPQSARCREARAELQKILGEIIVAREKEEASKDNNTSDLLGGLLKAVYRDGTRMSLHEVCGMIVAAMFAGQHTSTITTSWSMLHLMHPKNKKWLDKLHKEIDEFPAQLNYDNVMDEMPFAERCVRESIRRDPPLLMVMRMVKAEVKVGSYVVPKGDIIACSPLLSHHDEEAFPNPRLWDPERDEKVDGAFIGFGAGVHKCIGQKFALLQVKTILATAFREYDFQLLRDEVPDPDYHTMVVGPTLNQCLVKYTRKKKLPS

Structure (SMILES) | IC50 (Leishmania donovani [1]) | IC50 [2] | IC50 (Trypanosoma cruzi [3]) | IC50 (Trypanosoma cruzi [4]) | IC50 (Leishmania donovani [5]) | IC50 at 48 h [6] | IC50 (Leishmania donovani [7]) | IC50 [8] | IC50 (Leishmania donovani [9]) | IC50 [10] | IC50 (Trypanosoma cruzi [11]) | IC50 (Trypanosoma cruzi [12])
N#Cc1cccc(Nc2nccc(N3CCC(NS(=O)(=O)c4cccc(C#N)c4)CC3)n2)c1 | > 50.1 µM | 7.94 µM | 7.94 µM | 3.16 µM | 10 µM | 50.1 µM | 0.631 µM | 6310 nM | 6.31 µM | 6310 nM | 31.6 µM | 1.58 µM
Cc1ccc2c(c1)SC(C(=O)Nc1nnc(-c3ccccn3)[nH]1)C2 (configuration not stated) | 25.1 µM | > 100 µM | 7.94 µM | 6.31 µM | 3.98 µM | 25.1 µM | 6.31 µM | 3980 nM | 2.51 µM | > 39800 nM | > 50.1 µM | 5.01 µM
N#Cc1ccc(C(=O)Nc2cccc(-c3cccc(CN4CCC(O)CC4)c3)c2)cc1 | 15.8 µM | 25.1 µM | 7.94 µM | 7.94 µM | 15.8 µM | 39.8 µM | > 50.1 µM | 794 nM | 7.94 µM | 794 nM | 31.6 µM | 5.01 µM
O=C1CN(C(=O)c2cccc(Nc3ncc(-c4ccc5c(c4)OCO5)cn3)c2)CCN1 | > 63.1 µM | 25.1 µM | 0.794 µM | 0.501 µM | 5.01 µM | > 126 µM | 1.58 µM | > 50100 nM | 2 µM | > 50100 nM | > 63.1 µM | 1.58 µM
C[C@@H](Oc1cc(-n2cnc3ccc(CC(O)CO)cc32)sc1C(N)=O)c1ccccc1Cl (some centres not stated) | 39.8 µM | 25.1 µM | 50.1 µM | 12.6 µM | 39.8 µM | > 100 µM | 25.1 µM | 631 nM | 31.6 µM | 794 nM | 0.126 µM | 3.16 µM
CN(C)CCN(C)Cc1ccc(Cl)cc1NS(=O)(=O)c1ccc(Cl)c(Cl)c1 | 31.6 µM | 31.6 µM | 2 µM | 2 µM | 6.31 µM | 31.6 µM | 5.01 µM | 7940 nM | 3.98 µM | 3980 nM | 5.01 µM | 1.12 µM
CCc1cccc(CC)c1-n1c(SCC(=O)NC(=O)NCc2ccco2)nnc1-c1cccnc1 | > 50.1 µM | 1 µM | 12.6 µM | 7.94 µM | > 50.1 µM | > 100 µM | > 50.1 µM | 398 nM | > 50.1 µM | 794 nM | > 50.1 µM | 12.6 µM
Cc1[nH]nc(Nc2ccnc3[nH]ccc23)c1C | > 50.1 µM | 79.4 µM | > 50.1 µM | > 50.1 µM | > 50.1 µM | > 100 µM | > 50.1 µM | 126 nM | > 50.1 µM | 251 nM | > 50.1 µM | 3.98 µM
Cc1ccccc1NS(=O)(=O)c1ccc2[nH]cc(C(=O)NC3CCCC3)c(=O)c2c1 | 31.6 µM | 12.6 µM | 31.6 µM | 25.1 µM | > 50.1 µM | 25.1 µM | > 50.1 µM | 316 nM | 39.8 µM | 631 nM | 20 µM | 25.1 µM
CC(=O)Nc1cccc(Nc2ncnc3[nH]cnc23)c1 | 10 µM | > 100 µM | 39.8 µM | 25.1 µM | > 50.1 µM | > 100 µM | > 50.1 µM | 126 nM | 39.8 µM | 398 nM | > 50.1 µM | > 50.1 µM
NC(=O)c1cc(NC(=O)c2ccccc2COc2ccccc2)ccc1Cl | 15.8 µM | 79.4 µM | 31.6 µM | 25.1 µM | 3.16 µM | > 100 µM | 7.94 µM | 15800 nM | 1.58 µM | > 39800 nM | > 50.1 µM | 39.8 µM
